Laboratory results: US7432087B2, “Method for preparing (2S, 3R, 4S)-4-hydroxyisoleucine and analogues thereof” (Centre National de la Recherche Scientifque, priority 2002, dated 2008)

What was measured:
[1] = background statement with literature references; cited from earlier work

Row | SMILES | melting point | insulinotropic activity [1]
1 | C[C@@H]([C@H](C)O)[C@@H](NCc1ccccc1)C(=O)O [(2R)-N-Bn-1, (2R,3R,4S)-N-benzyl-4-hydroxyisoleucine] | 193 to 194 °C (dec.) | 
2 | C[C@@H]([C@H](C)O)[C@H](N)C(=O)O [compound 1, (2S,3R,4S)-4-hydroxyisoleucine] |  | possesses an insulinotropic activity
